Test results published in US12077503B2, “Substituted cyclic amides and their use as herbicides” (FMC CORPORATION, priority 2015, dated 2024).

How the values were obtained:
Assay type in all cases: in vivo
[1] = system: redroot pigweed (Amaranthus retroflexus); assay: Test G Pre-Emergence Protocol; details: Amaranthus retroflexus, pre-emergence, 312 h, evaluated after 13 days; for pest or weed control at 15.625 g/ha: 15.625 g ai/ha; for pest or weed control at 15.625 g/ha / pest or weed control at 250 g/ha: read-out: Pigweed, Redroot damage rating (100=total damage to plant; 0=no damage to plant); for pest or weed control at 250 g/ha: 250 g ai/ha; for pest or weed control at 62.5 g/ha: 62.5 g ai/ha, 100=total damage to plant, 0=no damage to plant, read-out: plant damage rating, Pigweed, Redroot
Method in brief: (§1)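 Test compound in 0.5% Tween 20 acetone/water (50:50) was applied at three rates (15.625, 62.5, 250 g/ha) to soil sown one day earlier. After 13 days plants were scored for injury, where 0 means unaffected and 100 means completely damaged.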

[2] = system: velvetleaf (Abutilon theophrasti); assay: Test G Pre-Emergence Protocol; details: Abutilon theophrasti, pre-emergence, 312 h, evaluated after 13 days; for pest or weed control at 15.625 g/ha: 15.625 g ai/ha; for pest or weed control at 15.625 g/ha / pest or weed control at 250 g/ha: read-out: Velvetleaf damage rating (100=total damage to plant; 0=no damage to plant); for pest or weed control at 62.5 g/ha: 62.5 g ai/ha, 100=total damage to plant, 0=no damage to plant, read-out: plant damage rating, Velvetleaf; for pest or weed control at 250 g/ha: 250 g ai/ha
Method in brief: as §1

[3] = system: giant foxtail (Setaria faberi); assay: Test G Pre-Emergence Protocol; details: Setaria faberi, pre-emergence, 312 h, evaluated after 13 days; for pest or weed control at 15.625 g/ha: 15.625 g ai/ha; for pest or weed control at 15.625 g/ha / pest or weed control at 250 g/ha: read-out: Foxtail, Giant damage rating (100=total damage to plant; 0=no damage to plant); for pest or weed control at 62.5 g/ha: 62.5 g ai/ha, 100=total damage to plant, 0=no damage to plant, read-out: plant damage rating, Foxtail, Giant; for pest or weed control at 250 g/ha: 250 g ai/ha
Method in brief: as §1

[4] = system: barnyardgrass (Echinochloa crus-galli); assay: Test G Pre-Emergence Protocol; details: Echinochloa crus-galli, pre-emergence, 312 h, evaluated after 13 days; for pest or weed control at 15.625 g/ha: 15.625 g ai/ha, read-out: Barnyard grass damage rating (100=total damage to plant; 0=no damage to plant); for pest or weed control at 62.5 g/ha: 62.5 g ai/ha, 100=total damage to plant, 0=no damage to plant, read-out: plant damage rating, Barnyardgrass; for pest or weed control at 250 g/ha: 250 g ai/ha, read-out: Barnyardgrass damage rating (100=total damage to plant; 0=no damage to plant)
Method in brief: as §1

corn (Zea mays) [5] = assay: Test G Pre-Emergence Protocol; details: Zea mays, pre-emergence, 312 h, evaluated after 13 days; for plant injury at 15.625 g/ha: 15.625 g ai/ha; for plant injury at 15.625 g/ha / plant injury at 250 g/ha: read-out: Corn damage rating (100=total damage to plant; 0=no damage to plant); for plant injury at 62.5 g/ha: 62.5 g ai/ha, 100=total damage to plant, 0=no damage to plant, read-out: plant damage rating, Corn; for plant injury at 250 g/ha: 250 g ai/ha
Method in brief: as §1

[6] = system: ivy-leaved morning glory (Ipomoea hederacea); assay: Test G Pre-Emergence Protocol; details: Ipomoea, pre-emergence, 312 h, evaluated after 13 days; for pest or weed control at 15.625 g/ha: 15.625 g ai/ha, read-out: Morning-glory, Ivy-leaved damage rating (100=total damage to plant; 0=no damage to plant); for pest or weed control at 62.5 g/ha: 62.5 g ai/ha, 100=total damage to plant, 0=no damage to plant, read-out: plant damage rating, Morningglory, Ivy-leaved; for pest or weed control at 250 g/ha: 250 g ai/ha, read-out: Morningglory, Ivy-leaved damage rating (100=total damage to plant; 0=no damage to plant)
Method in brief: as §1

[7] = system: redroot pigweed (Amaranthus retroflexus); assay: Test G Post-Emergence Protocol; details: Amaranthus retroflexus, post-emergence, 312 h; for pest or weed control at 15.625 g/ha: 15.625 g ai/ha, evaluated after 13 days (100=total damage to plant; 0=no damage to plant), read-out: Pigweed, Redroot damage rating; for pest or weed control at 62.5 g/ha: 62.5 g ai/ha, read-out: Pigweed, Redroot damage rating (100=total damage to plant; 0=no damage to plant); for pest or weed control at 62.5 g/ha / pest or weed control at 250 g/ha: evaluated after 13 days; for pest or weed control at 250 g/ha: 250 g ai/ha, read-out: damage to plant, Pigweed, Redroot (100=total damage to plant; 0=no damage to plant)
Method in brief: (§2)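 Foliar application was made 8 days after sowing, using an aqueous spray of the active in acetone/water (50:50) with 0.5% Tween 20, at doses of 15.625, 62.5 or 250 g/ha. Injury was assessed 13 days later, where 100 meant the plant was fully damaged.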

[8] = system: velvetleaf (Abutilon theophrasti); assay: Test G Post-Emergence Protocol; details: Abutilon theophrasti, post-emergence, 312 h; for pest or weed control at 15.625 g/ha: 15.625 g ai/ha, evaluated after 13 days (100=total damage to plant; 0=no damage to plant), read-out: Velvetleaf damage rating; for pest or weed control at 62.5 g/ha: 62.5 g ai/ha, read-out: Velvetleaf damage rating (100=total damage to plant; 0=no damage to plant); for pest or weed control at 62.5 g/ha / pest or weed control at 250 g/ha: evaluated after 13 days; for pest or weed control at 250 g/ha: 250 g ai/ha, read-out: damage to plant, Velvetleaf (100=total damage to plant; 0=no damage to plant)
Method in brief: as §2

[9] = system: giant foxtail (Setaria faberi); assay: Test G Post-Emergence Protocol; details: Setaria faberi, post-emergence, 312 h; for pest or weed control at 15.625 g/ha: 15.625 g ai/ha, evaluated after 13 days (100=total damage to plant; 0=no damage to plant), read-out: Foxtail, Giant damage rating; for pest or weed control at 62.5 g/ha: 62.5 g ai/ha, read-out: Foxtail, Giant damage rating (100=total damage to plant; 0=no damage to plant); for pest or weed control at 62.5 g/ha / pest or weed control at 250 g/ha: evaluated after 13 days; for pest or weed control at 250 g/ha: 250 g ai/ha, read-out: damage to plant, Foxtail, Giant (100=total damage to plant; 0=no damage to plant)
Method in brief: as §2

[10] = system: barnyardgrass (Echinochloa crus-galli); assay: Test G Post-Emergence Protocol; details: Echinochloa crus-galli, post-emergence, 312 h; for pest or weed control at 15.625 g/ha: 15.625 g ai/ha, evaluated after 13 days (100=total damage to plant; 0=no damage to plant), read-out: Barnyardgrass damage rating; for pest or weed control at 62.5 g/ha: 62.5 g ai/ha, read-out: Barnyardgrass damage rating (100=total damage to plant; 0=no damage to plant); for pest or weed control at 62.5 g/ha / pest or weed control at 250 g/ha: evaluated after 13 days; for pest or weed control at 250 g/ha: 250 g ai/ha, read-out: damage to plant, Barnyardgrass (100=total damage to plant; 0=no damage to plant)
Method in brief: as §2

corn (Zea mays) [11] = assay: Test G Post-Emergence Protocol; details: Zea mays, post-emergence, 312 h; for plant injury at 15.625 g/ha: 15.625 g ai/ha, evaluated after 13 days (100=total damage to plant; 0=no damage to plant), read-out: Corn damage rating; for plant injury at 62.5 g/ha: 62.5 g ai/ha, read-out: Corn damage rating (100=total damage to plant; 0=no damage to plant); for plant injury at 62.5 g/ha / plant injury at 250 g/ha: evaluated after 13 days; for plant injury at 250 g/ha: 250 g ai/ha, read-out: damage to plant, Corn (100=total damage to plant; 0=no damage to plant)
Method in brief: as §2

[12] = system: ivy-leaved morning glory (Ipomoea hederacea); assay: Test G Post-Emergence Protocol; details: Ipomoea, post-emergence, 312 h; for pest or weed control at 15.625 g/ha: 15.625 g ai/ha, evaluated after 13 days (100=total damage to plant; 0=no damage to plant), read-out: Morningglory, Ivy-leaved damage rating; for pest or weed control at 62.5 g/ha: 62.5 g ai/ha, read-out: Morningglory, Ivy-leaved damage rating (100=total damage to plant; 0=no damage to plant); for pest or weed control at 62.5 g/ha / pest or weed control at 250 g/ha: evaluated after 13 days; for pest or weed control at 250 g/ha: 250 g ai/ha, read-out: damage to plant, Morningglory, Ivy-leaved (100=total damage to plant; 0=no damage to plant)
Method in brief: as §2

Row | SMILES | pest or weed control at 15.625 g/ha [1] | pest or weed control at 250 g/ha [1] | pest or weed control at 15.625 g/ha [2] | pest or weed control at 62.5 g/ha [2] | pest or weed control at 250 g/ha [2] | pest or weed control at 15.625 g/ha [3] | pest or weed control at 62.5 g/ha [3] | pest or weed control at 250 g/ha [3] | pest or weed control at 15.625 g/ha [4] | pest or weed control at 62.5 g/ha [4] | pest or weed control at 250 g/ha [4] | plant injury at 15.625 g/ha (corn (Zea mays) [5]) | plant injury at 62.5 g/ha (corn (Zea mays) [5]) | plant injury at 250 g/ha (corn (Zea mays) [5]) | pest or weed control at 15.625 g/ha [6] | pest or weed control at 62.5 g/ha [6] | pest or weed control at 250 g/ha [6] | pest or weed control at 15.625 g/ha [7] | pest or weed control at 62.5 g/ha [7] | pest or weed control at 250 g/ha [7] | also measured
1 | CN1C[C@H](c2ccc(C(F)(F)F)cc2)[C@@H](C(=O)Nc2ccccc2S(C)(=O)=O)C1=O (racemic) [Compound 1459] | 0% | 60% | 0% | 0% | 0% | 40% | 60% | 80% | 20% | 60% | 60% | 0% | 0% | 0% | 0% | 0% | 0% | 30% | 40% | 40% | pest or weed control at 15.625 g/ha [8]: 0%; pest or weed control at 62.5 g/ha [8]: 0%; pest or weed control at 250 g/ha [8]: 0%; pest or weed control at 15.625 g/ha [9]: 10%; pest or weed control at 62.5 g/ha [9]: 60%; pest or weed control at 250 g/ha [9]: 60%; pest or weed control at 15.625 g/ha [10]: 0%; pest or weed control at 62.5 g/ha [10]: 10%; pest or weed control at 250 g/ha [10]: 20%; plant injury at 15.625 g/ha (corn (Zea mays) [11]): 10%; plant injury at 62.5 g/ha (corn (Zea mays) [11]): 10%; plant injury at 250 g/ha (corn (Zea mays) [11]): 10%; pest or weed control at 15.625 g/ha [12]: 0%; pest or weed control at 62.5 g/ha [12]: 0%; pest or weed control at 250 g/ha [12]: 20%
2 | COC(=O)c1cc([C@H]2CN(C)C(=O)[C@@H]2C(=O)Nc2ccccc2F)ccc1Cl (racemic) [Compound 1460] | 0% | 70% | 0% | 0% | 0% | 10% | 80% | 90% | 0% | 70% | 90% | 0% | 0% | 10% | 0% | 40% | 50% | 0% | 10% | 20% | pest or weed control at 62.5 g/ha [1]: 40%; pest or weed control at 15.625 g/ha [8]: 0%; pest or weed control at 62.5 g/ha [8]: 0%; pest or weed control at 250 g/ha [8]: 10%; pest or weed control at 15.625 g/ha [9]: 40%; pest or weed control at 62.5 g/ha [9]: 70%; pest or weed control at 250 g/ha [9]: 70%; pest or weed control at 15.625 g/ha [10]: 20%; pest or weed control at 62.5 g/ha [10]: 30%; pest or weed control at 250 g/ha [10]: 60%; plant injury at 15.625 g/ha (corn (Zea mays) [11]): 10%; plant injury at 62.5 g/ha (corn (Zea mays) [11]): 0%; plant injury at 250 g/ha (corn (Zea mays) [11]): 40%; pest or weed control at 15.625 g/ha [12]: 0%; pest or weed control at 62.5 g/ha [12]: 0%; pest or weed control at 250 g/ha [12]: 10%
3 | CN1C[C@H](c2cccc(C#N)c2)[C@@H](C(=O)Nc2ccccc2F)C1=O (racemic) [Compound 1471] | 0% | 0% | 0% | 0% | 0% | 40% | 80% | 90% | 10% | 70% | 90% | 0% | 0% | 0% | 0% | 0% | 20% | 10% | 0% | 20% | pest or weed control at 62.5 g/ha [1]: 0%; pest or weed control at 15.625 g/ha [8]: 10%; pest or weed control at 62.5 g/ha [8]: 0%; pest or weed control at 250 g/ha [8]: 10%; pest or weed control at 15.625 g/ha [9]: 10%; pest or weed control at 62.5 g/ha [9]: 60%; pest or weed control at 250 g/ha [9]: 70%; pest or weed control at 15.625 g/ha [10]: 30%; pest or weed control at 62.5 g/ha [10]: 30%; pest or weed control at 250 g/ha [10]: 50%; plant injury at 15.625 g/ha (corn (Zea mays) [11]): 10%; plant injury at 62.5 g/ha (corn (Zea mays) [11]): 0%; plant injury at 250 g/ha (corn (Zea mays) [11]): 0%; pest or weed control at 15.625 g/ha [12]: 10%; pest or weed control at 62.5 g/ha [12]: 0%; pest or weed control at 250 g/ha [12]: 20%
